Data published in PubChem BioAssay (NCI).
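Each compound was tested at five concentrations against cells in 96-well plates for 48 hours. Here, GI50 denotes the concentration required for 50% inhibition of growth. The concentration for full growth arrest is given as TGI.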

Assays:
Test in all cases: growth of human tumour cells (NCI), 48 h
OVCAR-5 ovarian = test system: OVCAR-5 ovarian
SR leukemia = test system: SR leukemia
DU-145 prostate = test system: DU-145 prostate
KM12 colon = test system: KM12 colon
SF-268 CNS = test system: SF-268 CNS
MDA-MB-435 = test system: MDA-MB-435
UACC-62 melanoma = test system: UACC-62 melanoma
IGROV1 ovarian = test system: IGROV1 ovarian
SK-MEL-28 melanoma = test system: SK-MEL-28 melanoma
SN12C renal = test system: SN12C renal
UACC-257 melanoma = test system: UACC-257 melanoma
HCT-15 colon = test system: HCT-15 colon
NCI/ADR-RES ovarian = test system: NCI/ADR-RES ovarian
NCI-H460 lung = test system: NCI-H460 lung
NCI-H23 lung = test system: NCI-H23 lung
786-0 renal = test system: 786-0 renal
HS 578T breast = test system: HS 578T breast
HOP-62 NSCLC = test system: HOP-62 NSCLC
SK-MEL-2 melanoma = test system: SK-MEL-2 melanoma
ACHN renal = test system: ACHN renal
RXF 393 renal = test system: RXF 393 renal
MDA-MB-231 breast = test system: MDA-MB-231 breast
UO-31 renal = test system: UO-31 renal
TK-10 renal = test system: TK-10 renal
CCRF-CEM leukemia = test system: CCRF-CEM leukemia
SNB-19 CNS = test system: SNB-19 CNS
NCI-H522 lung = test system: NCI-H522 lung
NCI-H226 lung = test system: NCI-H226 lung
SNB-75 CNS = test system: SNB-75 CNS
K-562 leukemia = test system: K-562 leukemia
COLO 205 colon = test system: COLO 205 colon
OVCAR-3 ovarian = test system: OVCAR-3 ovarian
MOLT-4 leukemia = test system: MOLT-4 leukemia
PC-3 prostate = test system: PC-3 prostate
SF-539 CNS = test system: SF-539 CNS
A498 renal = test system: A498 renal
CAKI-1 renal = test system: CAKI-1 renal
HL-60(TB) leukemia = test system: HL-60(TB) leukemia
SF-295 CNS = test system: SF-295 CNS
M14 melanoma = test system: M14 melanoma
SK-OV-3 ovarian = test system: SK-OV-3 ovarian
U251 CNS = test system: U251 CNS
MALME-3M melanoma = test system: MALME-3M melanoma
EKVX NSCLC = test system: EKVX NSCLC
HCT-116 colon = test system: HCT-116 colon
OVCAR-4 ovarian = test system: OVCAR-4 ovarian
SK-MEL-5 melanoma = test system: SK-MEL-5 melanoma
RPMI-8226 leukemia = test system: RPMI-8226 leukemia
A549 NSCLC = test system: A549 NSCLC
BT-549 breast = test system: BT-549 breast
MCF7 breast = test system: MCF7 breast
HOP-92 NSCLC = test system: HOP-92 NSCLC
HT29 colon = test system: HT29 colon
HCC-2998 colon = test system: HCC-2998 colon
OVCAR-8 ovarian = test system: OVCAR-8 ovarian
LOX IMVI melanoma = test system: LOX IMVI melanoma
SW-620 colon = test system: SW-620 colon
T-47D breast = test system: T-47D breast

## C=C(C)CCC(C)N1CCC(N2CCC(C(=O)NCCc3ccccc3)CC2)CC1 (configuration not stated)
OVCAR-5 ovarian
  GI50: 78.9 µM
  TGI: > 100 µM
SR leukemia
  GI50: 12.3 µM
  TGI: 82.1 µM
DU-145 prostate
  GI50: > 100 µM
  TGI: > 100 µM
KM12 colon
  GI50: 54.6 µM
  TGI: > 100 µM
SF-268 CNS
  GI50: 98 µM
  TGI: > 100 µM
MDA-MB-435
  GI50: 14 µM
  TGI: 28.5 µM
UACC-62 melanoma
  GI50: 13.7 µM
  TGI: 28.8 µM
IGROV1 ovarian
  GI50: > 100 µM
  TGI: > 100 µM
SK-MEL-28 melanoma
  GI50: 13.2 µM
  TGI: 27.5 µM
SN12C renal
  GI50: 55.5 µM
  TGI: > 100 µM
UACC-257 melanoma
  GI50: 13.5 µM
  TGI: 30.5 µM
HCT-15 colon
  GI50: 16.7 µM
  TGI: 57.6 µM
NCI/ADR-RES ovarian
  GI50: 37.4 µM
  TGI: > 100 µM
NCI-H460 lung
  GI50: 37.8 µM
  TGI: > 100 µM
NCI-H23 lung
  GI50: 31.3 µM
  TGI: > 100 µM
786-0 renal
  GI50: > 100 µM
  TGI: > 100 µM
HS 578T breast
  GI50: 20.4 µM
  TGI: 61.8 µM
HOP-62 NSCLC
  GI50: 68.9 µM
  TGI: > 100 µM
SK-MEL-2 melanoma
  GI50: 21.3 µM
  TGI: 54.3 µM
ACHN renal
  GI50: 17.2 µM
  TGI: 53.8 µM
RXF 393 renal
  GI50: 14.8 µM
  TGI: 43 µM
MDA-MB-231 breast
  GI50: 29.9 µM
  TGI: > 100 µM
UO-31 renal
  GI50: 11 µM
  TGI: 25.3 µM
TK-10 renal
  GI50: 18.5 µM
  TGI: 69.3 µM
CCRF-CEM leukemia
  GI50: 19.9 µM
  TGI: > 100 µM
SNB-19 CNS
  GI50: 58.9 µM
  TGI: > 100 µM
NCI-H522 lung
  GI50: 14 µM
  TGI: 54.4 µM
NCI-H226 lung
  GI50: 96.6 µM
  TGI: > 100 µM
SNB-75 CNS
  GI50: 14.1 µM
  TGI: 44.6 µM
K-562 leukemia
  GI50: 9.9 µM
  TGI: 34.2 µM
COLO 205 colon
  GI50: 13.4 µM
  TGI: 33.8 µM
OVCAR-3 ovarian
  GI50: 53.7 µM
  TGI: > 100 µM
MOLT-4 leukemia
  GI50: 45.9 µM
  TGI: > 100 µM
PC-3 prostate
  GI50: 79.2 µM
  TGI: > 100 µM
SF-539 CNS
  GI50: 10.5 µM
  TGI: 23.8 µM
A498 renal
  GI50: 4.55 µM
  TGI: 44.4 µM
CAKI-1 renal
  GI50: 17.3 µM
  TGI: 75.4 µM
HL-60(TB) leukemia
  GI50: 25.7 µM
  TGI: > 100 µM
SF-295 CNS
  GI50: 11.9 µM
  TGI: 26.1 µM
M14 melanoma
  GI50: 15.4 µM
  TGI: 31.1 µM
SK-OV-3 ovarian
  GI50: 21.2 µM
  TGI: 77.3 µM
U251 CNS
  GI50: 14.4 µM
  TGI: 33 µM
MALME-3M melanoma
  GI50: 11.8 µM
  TGI: 26.9 µM
EKVX NSCLC
  GI50: 9.27 µM
  TGI: > 100 µM
HCT-116 colon
  GI50: 16.8 µM
  TGI: > 100 µM
OVCAR-4 ovarian
  GI50: 5.97 µM
  TGI: 73 µM
SK-MEL-5 melanoma
  GI50: 4.2 µM
  TGI: 16.8 µM
RPMI-8226 leukemia
  GI50: 10.1 µM
  TGI: > 100 µM
A549 NSCLC
  GI50: 32.2 µM
  TGI: > 100 µM
BT-549 breast
  GI50: 12.1 µM
  TGI: > 100 µM
MCF7 breast
  GI50: 19.6 µM
  TGI: > 100 µM
HOP-92 NSCLC
  GI50: 13.4 µM
  TGI: 62 µM
HT29 colon
  GI50: 22.1 µM
  TGI: > 100 µM
HCC-2998 colon
  GI50: 37.9 µM
  TGI: > 100 µM
OVCAR-8 ovarian
  GI50: 27.8 µM
  TGI: > 100 µM
LOX IMVI melanoma
  GI50: 15.8 µM
  TGI: 35.5 µM
SW-620 colon
  GI50: 24.7 µM
  TGI: > 100 µM
T-47D breast
  GI50: 13.4 µM
  TGI: > 100 µM

## CCOC(=O)C1(Cc2c[nH]c3ccccc23)C(O)CCCN1C(C)=O (configuration not stated)
OVCAR-5 ovarian
  TGI: > 100 µM
SR leukemia
  TGI: > 100 µM
DU-145 prostate
  TGI: > 100 µM
KM12 colon
  TGI: > 100 µM
SF-268 CNS
  TGI: > 100 µM
MDA-MB-435
  TGI: > 100 µM
UACC-62 melanoma
  TGI: > 100 µM
IGROV1 ovarian
  TGI: > 100 µM
SK-MEL-28 melanoma
  TGI: > 100 µM
UACC-257 melanoma
  TGI: > 100 µM
HCT-15 colon
  TGI: > 100 µM
NCI/ADR-RES ovarian
  TGI: > 100 µM
NCI-H460 lung
  TGI: > 100 µM
NCI-H23 lung
  TGI: > 100 µM
786-0 renal
  TGI: > 100 µM
HS 578T breast
  TGI: > 100 µM
HOP-62 NSCLC
  TGI: > 100 µM
SK-MEL-2 melanoma
  TGI: > 100 µM
ACHN renal
  TGI: > 100 µM
RXF 393 renal
  TGI: > 100 µM
MDA-MB-231 breast
  TGI: > 100 µM
UO-31 renal
  TGI: > 100 µM
TK-10 renal
  TGI: > 100 µM
CCRF-CEM leukemia
  TGI: > 100 µM
SNB-19 CNS
  TGI: > 100 µM
NCI-H226 lung
  TGI: > 100 µM
SNB-75 CNS
  TGI: > 100 µM
K-562 leukemia
  TGI: > 100 µM
COLO 205 colon
  TGI: > 100 µM
OVCAR-3 ovarian
  TGI: > 100 µM
MOLT-4 leukemia
  TGI: > 100 µM
PC-3 prostate
  TGI: > 100 µM
SF-539 CNS
  TGI: > 100 µM
A498 renal
  TGI: > 100 µM
CAKI-1 renal
  TGI: > 100 µM
HL-60(TB) leukemia
  TGI: > 100 µM
SF-295 CNS
  TGI: > 100 µM
M14 melanoma
  TGI: > 100 µM
SK-OV-3 ovarian
  TGI: > 100 µM
U251 CNS
  TGI: > 100 µM
MALME-3M melanoma
  TGI: > 100 µM
EKVX NSCLC
  TGI: > 100 µM
HCT-116 colon
  TGI: > 100 µM
OVCAR-4 ovarian
  TGI: > 100 µM
SK-MEL-5 melanoma
  TGI: > 100 µM
RPMI-8226 leukemia
  TGI: > 100 µM
A549 NSCLC
  TGI: > 100 µM
BT-549 breast
  TGI: > 100 µM
MCF7 breast
  TGI: > 100 µM
HOP-92 NSCLC
  TGI: > 100 µM
HT29 colon
  TGI: > 100 µM
HCC-2998 colon
  TGI: > 100 µM
OVCAR-8 ovarian
  TGI: > 100 µM
LOX IMVI melanoma
  TGI: > 100 µM
SW-620 colon
  TGI: > 100 µM
T-47D breast
  TGI: > 100 µM
